Measured values reported in paper PMC9299640, “Incorporation of β‐Alanine in Cu(II) ATCUN Peptide Complexes Increases ROS Levels, DNA Cleavage and Antiproliferative Activity” (Chemistry (Weinheim an Der Bergstrasse, Germany), 2021).

Columns and labels:
[1] = tested on: SiHa (cervical carcinoma); experiment: Antiproliferative activity, sulforhodamine B (SRB) assay; format: cell-based, human; conditions: after treatment with 70 μM, 72 h
Method: (§1) The antiproliferative activity of selected Cu(II) ATCUN complexes was investigated towards different tumor cell lines (HCT116, NCI-H460, SiHa and SW480 cells) and expressed as the IC50 values.
(§2) Table S13. Accumulation of Cu in HCT116 cells after 24 h incubation with Cu-GGH, 1, 3, 4 and CuCl2 (70 µM) as determined by ICP-MS (n = 3), and cytotoxic activity in human cancer cell lines HCT116, NCI-H460, SiHa and SW480 expressed as the IC50 ± SD (in µM) as well as by the residual viable cells after treatment with 70 μM of the respective compound (%) as determined by the SRB assay (exposure time 72 h). accumulated Cu IC50 values […]
(§3) a – indicates no antiproliferative activity observed after treatment with the respective compound at 70 μM for 72 h.
(§4) S-12.1 Determination of IC50 values against HCT116, NCI-H460, SiHa and SW480 […]
(§5) HCT116, SW480 and NCI-H460 cells were supplied by ATCC, while SiHa cells were supplied by Dr. David Cowan, of the Ontario Cancer Institute, Canada. The cells were grown in α-MEM (Life Technologies) supplemented with 5% fetal calf serum (Moregate Biotech) at 37 °C in a humidified incubator with 5% CO2. […]
(§6) in 96-well plates and left to settle for 24 h. Compounds were added as water solutions to the plates in a series of 3-fold dilutions for 72 h before the assay was terminated by addition of 10% trichloroacetic acid (Merck Millipore) at 4 °C for 1 h. Cells were stained […]
(§7) with 0.4% sulforhodamine B (Sigma-Aldrich) in 1% acetic acid for 30 min in the dark at room temperature and then washed with 1% acetic acid to remove unbound dye. The stain was dissolved in unbuffered Tris base (10 mM, Serva) for 30 min on a plate shaker in the dark and quantified on a BioTek EL808 microplate reader at an absorbance of 490 nm with a reference wavelength of 450 nm to determine the percentage of cell-growth inhibition by determining the absorbance of each sample relative to a negative (no inhibitor) and a no-growth control (day 0). IC50 values were calculated with SigmaPlot 12.5 (Systat Software Inc.) using a three-parameter logistic sigmoidal dose−response curve between the calculated growth inhibition and the compound concentration. The presented IC50 values are the mean of at least three independent experiments, where 10 concentrations were tested in duplicate for each compound.
(§8) Ventures), by diluting with a matrix-matched solution with regard to HNO3 and Tm concentration, producing calibration standards with concentrations of 0.5, 1, 3, 5, 7, 10, […]
(§9) The measured Cu concentrations in the cell accumulation samples were in the range of 27–82 μg/L. The reported values are the means of at least three independent accumulation experiments conducted in triplicates with blank wells for each substance to account for unspecific binding of the Cu(II) complexes to the plastic of the well plates.
(§10) Accumulation values have been corrected by subtracting the average amount Cu determined in the cell-free wells.
(§11) Calibration curves for Cu were prepared with concentrations ranging from 0.5–100 µg/L. The limit of detection (LOD) was defined as 3 times the random error in the y-direction (Sy/x) of the calibration curve divided by the slope of the calibration curve. The limit of quantification (LOQ) was defined as 10 times the random error in the y-direction (Sy/x) of the calibration curve divided by the slope of the calibration curve.42 The LOD was determined for Cu as 1.8 μg/L and the LOQ was 5.95 μg/L.

[2] = tested on: HCT116 (colorectal carcinoma); experiment: as above; format: cell-based, human; conditions: after treatment with 70 μM, 72 h
Method: as §1, §2, §3, §4, §5, §6, §7, §8, §9, §10, §11

[3] = tested on: NCI-H460 (non-small cell lung carcinoma); experiment: as above; format: cell-based, human; conditions: after treatment with 70 μM, 72 h
Method: as §1, §2, §3, §4, §5, §6, §7, §8, §9, §10, §11

[4] = tested on: SW480 (colon adenocarcinoma); experiment: as above; format: cell-based, human; conditions: after treatment with 70 μM, 72 h
Method: as §1, §2, §3, §4, §5, §6, §7, §8, §9, §10, §11

[5] = pH 7.4, competitivity index (CI) method; cited from earlier work
Method: Table 1 CI values calculated at pH 7.4 for Cu(II) complexes 1–7 of peptides a–g (1 mM Cu(II), peptides L and virtual competitive ligand Z) based on respective stability constants. […] The high stability of Cu−GGH (CI7.4=12.4)[14] and the novel Cu(II) Gly2−ATCUN complexes 1 and 2 (CI7.4 13.61 and […], Table 1) by formation of 5,5,6‐chelates is assumed to be res ...

HCT116 cells = experiment: Cellular uptake of Cu by ICP-MS; format: cell-based, human; conditions: HCT116, 70 μM, 24 h
Method: We aimed to correlate the antiproliferative activity to the accumulation of Cu in HCT116 cells. Therefore, cells were treated for 24 h with complexes Cu−GGH, 1, 3, 4 and CuCl2 (70 μM), and the Cu content of the samples was determined by ICP‐MS (Table S13). […] The higher Cu contents probably lead to enhanced oxidative stress levels in cells, which consequently results in higher antiproliferative activity.
The antiproliferative activity of selected Cu(II) ATCUN complexes was investigated towards different tumor cell lines (HCT116, NCI-H460, SiHa and SW480 cells) and expressed as the IC50 values. Additionally, cellular uptake studies in HCT116 tumor cells were carried out and the amount of Cu was determined with inductively coupled plasma mass spectrometry (ICP-MS).
Table S13. […]
with 0.4% sulforhodamine B (Sigma-Aldrich) in 1% acetic acid for 30 min in the dark at room temperature and then washed with 1% acetic acid to remove unbound dye. The stain was dissolved in unbuffered Tris base (10 mM, Serva) for 30 min on a plate shaker in the dark and quantified on a BioTek EL808 microplate reader at an absorbance of 490 nm with a reference wavelength of 450 nm to determine the percentage of cell-growth inhibition by determining the absorbance of each sample relative to a negative (no inhibitor) and a no-growth control (day 0). […]

[6] = tested on: Ehrlich ascites tumor cells; conditions: cited from earlier work
Excerpt: Cowan et al. reported Cu(II) ATCUN complexes with anticancer, ‐viral, and ‐microbial activity as well as for DNA cleavage and enzyme inhibition.[3, 16, 17]

plasmid DNA pBR322 = conditions: 50 μM complex (Cu(II):peptide 1:1.25), pBR322 0.2 μg, MOPS 50 mM pH 7.4, ascH− 1 mM, 1 h, 37 °C; at least three experiments
Method: The influence of Gly2 and β‐Ala2 in the ATCUN motif of complexes 1–7 on the oxidative plasmid DNA cleavage activity was tested by means of gel electrophoresis. […] In Figure 3 the nuclease activity of in situ prepared 1–7, Cu−GGH and CuCl2 in the presence of ascH^− as reducing agent is shown (pH 7.4, 37 °C).
Figure 3 (Top) Nuclease activity towards plasmid DNA pBR322 (0.2 μg) of Cu(II) ATCUN complexes Cu−GGH, 1–7 (50 μM) and CuCl2 in MOPS buffer (50 mM, pH 7.4) in the presence of ascH^− (1 mM) after incubation for 1 h at 37 °C. Lane 1: DNA ladder (form I, II and III), lane 2: DNA reference, lanes 3–10 as indicated, lane 11: CuCl2. (Bottom) Visualization of the extent of DNA cleavage in percent. Error bars represent the standard deviation from at least three experiments.
A suitable concentration at which DNA forms II and III are visible, was determined to be 35 μM through a concentration‐dependent DNA cleavage experiment (S‐6.2, 0–50 μM).
All DNA cleavage experiments were
performed at least in triplicate in order to ensure reproducibility. The standard deviations
are represented as the error bars.
The in situ prepared complexes 1–7 (50 µM CuCl2 / 62.5 µM ligand, Cu(II):peptide = 1:1.25,
see S-4) and their corresponding ligands a–g (62.5 µM) were incubated with plasmid DNA […]
(form II), and linear (Form III) DNA were visualized by fluorescence imaging of […]

## NH2−Gly−Gly−His−COOH [Cu−GGH, reference compound]
[1]
  residual viable cells SiHa: – (indicates no antiproliferative activity observed after treatment with the respective compound at 70 μM for 72 h)
[2]
  residual viable cells HCT116: 66 ± 21%
[3]
  residual viable cells NCI-H460: 74 ± 9%
[4]
  residual viable cells SW480: 73 ± 17%
[5]
  log K 7.4 / CI7.4 of Cu(II) complex: 12.4
HCT116 cells
  cellular uptake (accumulated Cu content), approximate values: ~0.3 μg Cu/4×10^5 cells
[6]
  antitumor effect in vivo (in words): killed Ehrlich ascites tumor cells in vivo
Plasmid DNA pBR322
  extent of DNA cleavage, form II: ~90%
